Laboratory results as given in BindingDB's records for doi:10.1021/jm401056w (Takeda Pharmaceutical, 2013).
pIC50: −log10 of the molar value.

Assay: Inhibition of human KISS1R expressed in CHO cells assessed as inhibition of KISS1R-mediated cell growth after 3 days by cell counting kit-8 assay

| pIC50 | SMILES |
| --- | --- |
| 7.06 | CNC(N)=NCCC[C@H](NC(=O)[C@H](CC(C)C)NC(=O)CNC(=O)[C@H](Cc1ccccc1)NC(=O)[C@H](CO)NC(=O)[C@H](CC(N)=O)NC(=O)[C@H](Cc1c[nH]c2ccccc12)NC(=O)[C@H](CC(N)=O)NC(=O)[C@H](N)Cc1ccc(O)cc1)C(=O)N[C@@H](Cc1ccccc1)C(N)=O |
| 5.07 | CC(C)C[C@H](NC(=O)CNC(=O)[C@H](Cc1ccccc1)NC(=O)[C@H](CO)NC(=O)[C@H](CC(N)=O)NC(=O)[C@H](Cc1c[nH]c2ccccc12)NC(=O)[C@H](CC(N)=O)NC(=O)[C@@H](N)Cc1ccc(O)cc1)C(=O)N[C@@H](CCCN=C(N)N)C(=O)N[C@@H](Cc1ccccc1)C(N)=O [(2S)-2-[(2S)-2-[(2S)-2-[(2S)-2-amino-3-(4-hydroxyphenyl)propanamido]butanediamido]-3-(1H-indol-3-yl)propanamido]-N-[(1S)-1-{[(1S)-1-[({[(1S)-1-{[(1S)-4-carbamimidamido-1-{[(1S)-1-carbamoyl-2-phenylethyl]carbamoyl}butyl]carbamoyl}-3-methylbutyl]carbamoyl}methyl)carbamoyl]-2-phenylethyl]carbamoyl}-2-hydroxyethyl]butanediamide] |
